Test results published in patent US20060110456A1, “Method for biocidal and/or biostatic treatment and compositions therefor” (NATIONAL UNIVERSITY OF SINGAPORE, priority 2004, published 2006).
Entries after “also recorded” stand apart in the source; their conditions may differ. Structures can show the parent of a compound that is named as a salt.

Assays:
[1] = test system: barnacle cyprids; assay: Cyprid settlement on plastic and glass substrata (IMD, ZPX); assay type: in vivo, Balanus amphitrite
Procedure: Assays were then carried out on plastic and glass substrata. […] The wells were then rinsed with clean water, and cyprids added in clean seawater.
A follow up experiment was carried out to examine the effect of ZPX on barnacle settlement when the experiment is carried out on different substrata. ZPX test solutions were prepared as described above from the tablet. The following test conditions were applied: • (1) Assay was carried out with ZPX test solutions in the 24 well tissue culture plates (as before); • (2) ZPX test solution at 25 ug ml^−1 were applied to the 24 well tissue culture plates and left in the well for 10 minutes. The solution is then discarded and the well was rinsed three times, each time with 2 ml of seawater. Clean seawater was added into each well. • (3) The assay with ZPX test solutions was carried out in glass scintillation bottles.
Cyprids were obtained and settlement experiments were carried out as described earlier. After 24 hours, the number of cyprids which had settled/attached was counted.

[2] = test system: marine bacteria (ten strains); assay: Bacteriostatic vs bacteriocidal activity from growth assay: absorbance and CFU counts; assay type: cell-based, marine bacteria isolated from Singapore fouling communities; conditions: 50 μg ml^−1; for Growth assay: 24-hour change in absorbance for ten strains: strains 1, 4, 9, 14, 18, 20, 27, 28, 29, 30
Procedure: Bacteria strains (1, 4, 9, 14, 18, 20, 27, 28, 29, 30) representing a variety of morphological types were used.
For each well, […] of a 100 μg ml^−1 drug solution in sterile distilled water, was added to 45 μl of Marine Broth. Controls for growth consisted of 50 μl of sterile deionized water and 45 μl of marine broth. All wells used for growth studies were prepared in triplicate and inoculated with 5 μl of the bacterial suspension. Blanks consisting of the above volumes of pharmaceutical with Marine Broth and distilled water, were prepared in triplicate and inoculated with 5 μl of sterile seawater. Immediately after adding all the components to the wells for the growth studies, 10 μl was removed and used to inoculate plates of Marine Agar to determine colony-forming units (CFU). The absorbance (A600) of each well was read in the plate reader immediately.
The inoculated plates of Marine Agar were incubated overnight on a rotary shaker (150 rpm) at 30° C. inside a moistened airtight container. After incubation, the absorbance was read again and another 10 μl was removed and used to inoculate Marine Agar plates to determine CFU.
The difference in absorbance over 24 hours for each bacterial strain versus controls and treatments were plotted in FIGS. 3 to 6 for each of the four drugs. The data was analyzed using 1-tailed t-test.

[3] = test system: bacterial biofilms (strains 9, 14, 20, 27 and 28); assay: Effect of ZPX and ZFN on adhesion and removal of biofilms; assay type: cell-based, marine bacteria isolated from Singapore fouling communities; conditions: NTC; for Effect on established bacterial biofilms: 25 ug ml^−1; for Biofilm present after treatment (added with bacteria or after biofilm established): 50 ug ml^−1
Procedure: The bacteria were grown, washed and their concentrations were adjusted as described above. The bacterial suspension (75 μl) of strains 9, 14, 20, 27 and 28 in SSW and 50 μl of SDI water were placed into 96 well polystyrene microplates (Falcon 351172). Blank wells were filled with 75 μl of SSW and 50 μl of SDI. Three wells were used for blanks, each control and treatment.
The cells were allowed to attach to the wells for 2 h. Afterwards, unattached bacteria and liquid in the wells were removed by aspiration and wells were washed with 200 μl of SSW twice using a microplate washer as described above. After washing, 75 μl of SSW were added and 50 μl of SDI to the control (bacterial suspension and SDI as above) and blank (75 μl of SSW and 50 μl of SDI) wells.
After 2 h, the wells were washed with SSW, washed twice with SDI and stained with crystal violet as described above. After 10 min, the stain was removed, wells were washed twice with SDI, and crystal violet was released from the attached bacteria by adding 200 μl of sodium desoxycholate. After 10 min, absorbance (A590) of each well was read using a plate reader (Tecan Sunrise, Switzerland). Comparisons were made between wells where attached bacteria were exposed to SDI and wells where they were exposed to the pharmaceuticals.

SMILES | Change in CFU count after 24 hours ([2]; strain 1 (Rhodovulum)) | Inhibition of bacterial growth ([2]; strain 1 (Rhodovulum)) | Result (bacteriostatic / bacteriocidal / no effect) ([2]; strain 1 (Rhodovulum)) | Inhibition of bacterial growth ([2]; strain 4 (Bacillus)) | Result (bacteriostatic / bacteriocidal / no effect) ([2]; strain 4 (Bacillus)) | Inhibition of bacterial growth ([2]; strain 9 (Bacillus)) | Result (bacteriostatic / bacteriocidal / no effect) ([2]; strain 9 (Bacillus)) | Change in CFU count after 24 hours ([2]; strain 14 (Vibrio)) | Inhibition of bacterial growth ([2]; strain 14 (Vibrio)) | Result (bacteriostatic / bacteriocidal / no effect) ([2]; strain 14 (Vibrio)) | Inhibition of bacterial growth ([2]; strain 18 (Microbacterium)) | Result (bacteriostatic / bacteriocidal / no effect) ([2]; strain 18 (Microbacterium)) | Inhibition of bacterial growth ([2]; strain 20) | Result (bacteriostatic / bacteriocidal / no effect) ([2]; strain 20) | Inhibition of bacterial growth ([2]; strain 27) | Result (bacteriostatic / bacteriocidal / no effect) ([2]; strain 27) | Inhibition of bacterial growth ([2]; strain 28) | Result (bacteriostatic / bacteriocidal / no effect) ([2]; strain 28) | Inhibition of bacterial growth ([2]; strain 29) | Result (bacteriostatic / bacteriocidal / no effect) ([2]; strain 29) | further results
CN(C)C(=O)C(CCN1CCC(O)(c2ccc(Cl)cc2)CC1)(c1ccccc1)c1ccccc1 [IMD, Loperamide hydrochloride] | – | – | – | – | – | – | – | – | – | – | – | – | – | – | – | – | – | – | – | – | Effect of IMD on settlement of cyprids: drug form, solvent, substratum ([1]; tablet vs pure compound, DMSO vs DI stock, glass vs plastic, treated and rinsed wells, hydrochloride): no difference in activity between the solutions prepared from tablet and the pure compound; also recorded: no difference between the DMSO and DI prepared stock solutions; also recorded: no difference between glass and plastic; also recorded: no significant IMD residue present on the surfaces
CN1CCN(CCCN2c3ccccc3Sc3ccc(Cl)cc32)CC1 [PCZ, prochlorperazine maleate] | 0 | 0 | no effect | +++ (+++ denotes little or no growth, p < 0.001) | bacteriocidal | +++ (+++ denotes little or no growth, p < 0.001) | bacteriocidal | 0 | 0 | no effect | +++ (+++ denotes little or no growth, p < 0.001) | bacteriostatic | +++ (+++ denotes little or no growth, p < 0.001) | bacteriostatic | +++ (+++ denotes little or no growth, p < 0.001) | bacteriocidal | +++ (+++ denotes little or no growth, p < 0.001) | bacteriostatic | +++ (+++ denotes little or no growth, p < 0.001) | bacteriocidal | Killing of bacteria (decrease in absorbance and CFU counts) [2]: strain 14 was not killed; Growth assay: 24-hour change in absorbance for ten strains [2]: only strain numbers 1 and 14 grew in the presence of PCZ; Inhibition of bacterial growth ([2]; strain 30): +++ (+++ denotes little or no growth, p < 0.001); Result (bacteriostatic / bacteriocidal / no effect) ([2]; strain 30): bacteriostatic
CNCCC(Oc1ccc(C(F)(F)F)cc1)c1ccccc1 (stereo not shown) [PZC, fluoxetine hydrochloride] | 0 | 0 | no effect | +++ (+++ denotes little or no growth, p < 0.001) | bacteriostatic | +++ (+++ denotes little or no growth, p < 0.001) | bacteriostatic | 0 | 0 | no effect | +++ (+++ denotes little or no growth, p < 0.001) | bacteriostatic | +++ (+++ denotes little or no growth, p < 0.001) | bacteriostatic | +++ (+++ denotes little or no growth, p < 0.001) | bacteriocidal | +++ (+++ denotes little or no growth, p < 0.001) | bacteriostatic | +++ (+++ denotes little or no growth, p < 0.001) | bacteriostatic | Inhibition of bacterial growth ([2]; strain 30): +++ (+++ denotes little or no growth, p < 0.001); Result (bacteriostatic / bacteriocidal / no effect) ([2]; strain 30): bacteriostatic
CN1CCN(CCCN2c3ccccc3Sc3ccc(C(F)(F)F)cc32)CC1 [TFZ, Trifluoperazine hydrochloride] | 0 | 0 | no effect | +++ (+++ denotes little or no growth, p < 0.001) | bacteriocidal | +++ (+++ denotes little or no growth, p < 0.001) | bacteriocidal | 0 | 0 | no effect | +++ (+++ denotes little or no growth, p < 0.001) | bacteriostatic | +++ (+++ denotes little or no growth, p < 0.001) | bacteriostatic | +++ (+++ denotes little or no growth, p < 0.001) | bacteriocidal | +++ (+++ denotes little or no growth, p < 0.001) | bacteriostatic | +++ (+++ denotes little or no growth, p < 0.001) | bacteriocidal | Killing of bacteria (decrease in absorbance and CFU counts) [2]: strain 14 was not killed; Growth assay: 24-hour change in absorbance for ten strains [2]: only strain numbers 1 and 14 grew in the presence of TFZ; Inhibition of bacterial growth ([2]; strain 30): +++ (+++ denotes little or no growth, p < 0.001); Result (bacteriostatic / bacteriocidal / no effect) ([2]; strain 30): bacteriostatic
Cc1nccn1CC1CCc2c(c3ccccc3n2C)C1=O (stereo not shown) [ZFN, ondansetron hydrochloride] | – | – | – | – | – | – | – | – | – | – | – | – | – | – | – | – | – | – | – | – | Effect on established bacterial biofilms [3]: no significant effect; Biofilm present after treatment (added with bacteria or after biofilm established) [3]: Except for strain 28, little or no biofilm was present after treatment
Cc1cc2c(s1)Nc1ccccc1N=C2N1CCN(C)CC1 [ZPX, olanzapine] | – | – | – | – | – | – | – | – | – | – | – | – | – | – | – | – | – | – | – | – | Effect of ZPX on cyprid settlement on different substrata ([1]; 24 well tissue culture plates, rinsed ZPX-treated wells (25 ug ml^−1, 10 minutes), glass bottles, 24 hours): no significant difference in settlement between plastic and glass; also recorded: After rinsing, the effect of ZPX in plastic was removed; also recorded: prevents the settlement of barnacle cyprids; Effect on established bacterial biofilms [3]: no significant effect; Biofilm present after treatment (added with bacteria or after biofilm established) [3]: Except for strain 28, little or no biofilm was present after treatment
